{"source": "patent US20240025946A1", "about": "“Cyclic Tetrapeptides and Metal Complexes Thereof” (priority 2020, published 2024)", "key": {"DH5α E. coli": {"system": "DH5α E. coli", "test": "In vivo recovery test: Pb detoxification of poisoned bacteria, colony counting", "assay_type": "cell-based", "conditions": "highest concentration 120 mM (10 equiv.); Pb(NO3)2 12 mM; vs poisoned untreated cells; mean", "protocol": "(§1) Desalted peptides were then assessed for their ability to detoxify Pb (FIGS. 2a-d). The inventors designed two assays for rapid and reliable screening of potential CAs both in vivo on bacteria and then in vitro on human cell culture. Briefly, DH5a or HT-29 cells were first exposed to Pb(NO3)2 slightly below the minimal inhibitory concentration and then treated with various concentrations of the investigated CA, ranging from 0.1 to 10 equivalents. The viability of the cells was determined by colony counting or by crystal violet (Feoktistova et al, 2016), for the bacteria and the human cells, respectively, and was compared to poisoned cells that were not treated with any CA as the negative control. […] On the other hand, testing the compounds on human cells cannot be performed with insoluble compounds but is more relevant for medicinal purposes.\nHRMS (ESI) m/z calculated for C16H26N4O4SNa^+ [M+Na]^+ 427.14442; found: 427.14447 In vivo recovery tests A single colony of DH5a E. coli WT cells was grown overnight at 37° C. and 220 rpm in Tris Minimal Medium (TMM, pH 6.0; 5 mL) without antibiotics. The culture was then diluted to an OD600 of 0.03 with additional TMM to a total volume of 5 mL, and its OD600 was monitored. Upon cell density of 0.25 (which was achieved after 3-5 h), 1 mL of the culture was transferred into a cell culture tube and was labeled as the positive control. To additional 3 mL of the culture, 36 μL of Pb(NO3)2 1 M were added (final concentration of 12 mM). Both cultures were shaken at 37° C. and 220 rpm for an additional 5 h.\nAqueous stock solutions of each CA were plated on freshly prepared agar-LB plates such that the final concentration of each compound is equal to 0.5, 1, 2, 5, and 10 equivalents, compared to the amount of Pb(NO3)2 in 50 μL pre-toxified culture. The stock solutions were prepared such that plating and equally spreading 30 μL of each solution will provide the desired amount of CA. To additional two plates, 30 μL of H2O was added.\n50 μL of the pre-toxified culture were homogenously spread to each CA-containing plate, 5 h after adding the metal to the culture. The Pb-containing culture was also plated on one of the two H2O-containing plates and was labeled as the negative control. Lastly, 50 μL of the non-toxified culture were platted on the second H2O-containing plate and was labeled as positive control. All plates (positive and negative control and five plates for each examined compound) were then incubated at 37° C. overnight. The plates were then imaged, and the colonies were counted (with Vilber Quantum Visualization System). The recovery of each concentration of CA was calculated according to equation 1: […]\n#CAx—number of colonies of pre-toxified culture in a plate containing X mM of CA\n#NEG—number of colonies of pre-toxified culture in a plate containing no CA\n(§2) Each experiment was performed on three independent occasions. Values are mean±SD of >3 repeats each performed in triplicate."}, "HT-29 cells [1]": {"system": "HT-29 cells", "test": "In vitro recovery test: Pb detoxification of poisoned human cells, crystal violet", "assay_type": "cell-based", "conditions": "highest concentration 10 mM (5 equiv.); Pb(NO3)2 2 mM; vs poisoned untreated cells; mean, SD", "protocol": "as §1\n96-well plates were prepared such that every well contains 10,000 cells in 100 μL medium, and the cells were allowed to adhere overnight. To all wells but the positive control, 10 μL of 22 mM Pb(NO3)2 were added (final concentration 2 mM). 10 μL of H2O was added to the positive control wells. 60 min after addition of metal, 10 μL of each solution of the examined CA (2.4, 6, 12, 24, 48, and 120 mM) were added to reach final concentrations of 0.2, 0.5, 1, 2, 4, and 10 mM (which are 0.1, 0.25, 0.5, 1, 2, and 5 equivalents, respectively). To the positive control wells containing no metal and the negative control wells containing metal but no CA, 10 μL of H2O were added. Each condition was performed in triplicates. The plates were incubated at 37° C. and 5% CO2 for an additional 23 h, after which the medium was removed, washed with fresh medium and 50 μL of crystal violet solution (0.5% crystal violet powder in 20 mL MeOH and 80 mL H2O) to each well and the plates were gently shaken (60 rpm) for 20 min. The plates were then washed with H2O until no more unbound dye was observed and allowed to dry overnight. 200 μL of MeOH were added to each well, and the plates were gently shaken (60 rpm) for 20 min, after which their absorbance at 560 nm was read with a plate reader. The recovery of each concentration of CA was calculated according to equation 2:\n(§3) A[CAx]—absorbance of the pre-toxified well in the presence of X mM of CA\n(§4) A[blank]—absorbance of blank wells (contain nothing)\nA[NEG]—absorbance of the pre-toxified well that contains no CA\nas §2"}, "male mice (C57BL/6)": {"system": "male mice (C57BL/6)", "test": "Pb-poisoned mice: blood lead level and urinary Pb by ICP-MS", "assay_type": "in vivo", "conditions": "30 mg kg^−1 day^−1, days 10-16; for BLL: blood on day 18, eight mice; for Urinary Pb (ppm): urine on day 18", "protocol": "Peptide 8a was then tested in mice. 40 male mice (C57BL/6) aged 6-8 weeks were provided with 20 mM Pb(OAc)2 solution as the sole water supply for seven days (days 1-7). This poisoning route mimics chronic exposure in humans. Two days after returning to clean water (day 9), they were randomly divided into five groups of eight mice. They received a single treatment per day for seven days (days 10-16) of either CaNa2EDTA, DMSA, or 8a at a concentration of 30 mg kg^−1 except for group 1 that served as the negative control (Table 3).\nBlood samples (100 μL) were collected before dosing the mice on days 10-15 and on day 18, which is two days after the last dosing and the day by which the experiment was terminated. Urine was also collected from 34 animals on day 18 and was kept frozen until analysis."}, "HT-29 cells [2]": {"system": "HT-29 cells", "test": "In vitro toxicity test, crystal violet", "assay_type": "cell-based, human", "conditions": "HT-29, 24 h; for IC50: concentration at 50% viability, mean (SD), n.d. = not detected as it is too high", "protocol": "96-well plates were prepared such that every well contains 10,000 cells in 100 μL medium, and the cells were allowed to adhere overnight.\nTo all wells but the positive control, 10 μL of each solution of the examined CA (2.4, 6, 12, 24, 48, and 120 mM) were added to reach final concentrations of 0.2, 0.5, 1, 2, 4, and 10 mM. To the positive control wells, 10 μL of H2O was added. Each condition was performed in triplicates. The plates were incubated at 37° C. and 5% CO2 for 24 h, after which the medium was removed, washed with fresh medium and 50 μL of crystal violet solution (0.5% crystal violet powder in 20 mL MeOH and 80 mL H2O) to each well and the plates were gently shaken (60 rpm) for 20 min. The plates were then washed with H2O until no more unbound dye was observed and allowed to dry overnight. 200 μL of MeOH were added to each well, and the plates were gently shaken (60 rpm) for 20 min, after which their absorbance at 560 nm was read with a plate reader. The toxicity of each concentration of CA was calculated according to equation 3:\nas §3, §4\nA[POS]—absorbance of well that contains no CA\nas §2"}}, "note": "Where “and” joins values, the source holds several entries; their conditions need not be identical. Identical values can stand only once."}
{"smiles": "O=C(O)C(S)C(S)C(=O)O", "note": "(stereo not drawn) [DMSA, dimercaptosuccinic acid]", "values": [{"measurement": "Recovery DH5α (%)", "setting": "DH5α E. coli", "value": 165, "unit": "%"}, {"measurement": "Recovery HT-29 (%)", "setting": "HT-29 cells [1]", "value": "110±10% and 110%"}, {"measurement": "BLL", "setting": "male mice (C57BL/6); Oral", "value": "23.3 ± 2.3", "unit": "µg/dL"}, {"measurement": "Urinary Pb (ppm)", "setting": "male mice (C57BL/6); Oral", "value": "340 ± 28", "unit": "ppm"}, {"measurement": "IC50", "setting": "HT-29 cells [2]; Homo sapiens", "value": 3.7, "unit": "mM"}, {"measurement": "inhibition at 10000 µM", "setting": "HT-29 cells [2]; Homo sapiens, inhibition at the highest concentration (10 mM), mean, SD, read-out: Toxicity Maximal inhibition (%)", "value": 77, "unit": "%"}]}
{"smiles": "O=C([O-])CN(CCN(CC(=O)[O-])CC(=O)[O-])CC(=O)[O-].[Ca+2].[Na+].[Na+]", "note": "[Na2CaEDTA]", "values": [{"measurement": "Recovery DH5α (%)", "setting": "DH5α E. coli", "value": 182, "unit": "%"}, {"measurement": "Recovery HT-29 (%)", "setting": "HT-29 cells [1]", "value": "95±16% and 95%"}, {"measurement": "BLL", "setting": "male mice (C57BL/6); IV", "value": "25.7 ± 1.6", "unit": "µg/dL"}, {"measurement": "Urinary Pb (ppm)", "setting": "male mice (C57BL/6); IV", "value": "210 ± 30", "unit": "ppm"}, {"measurement": "IC50", "setting": "HT-29 cells [2]", "value": 3.9, "unit": "mM"}, {"measurement": "Toxicity Maximal inhibition (%)", "setting": "HT-29 cells [2]; inhibition at the highest concentration (10 mM), mean, SD", "value": 63, "unit": "%"}]}
